# Data: a melting point compilation (Tetko et al.; mined from patent text by program, amines drawn as free bases though some values may be those of a salt)
row,Compound,melting point
1,CCC1c2cccn2-c2ccc(F)cc2N1C(=O)c1cccc(OC)c1 (configuration not stated),70 to 74 °C
2,C=CCn1c2ccccc2c2sccc(=O)c21,67 to 68 °C
3,CCS(=O)(=O)C1=NCN(S(=O)(=O)CC)S1,42 °C
4,NC1=NC(c2ccc(OC(F)F)cc2)(c2cccc(-c3cccnc3F)c2)C2=NCC3(CC3)CN12 (configuration not stated),98 to 108 °C
5,CCOc1nc2c(Cl)cccc2s1,43 to 45 °C
6,Nc1nc2c(nc(Br)n2Cc2cccnc2)c(=O)[nH]1,> 300 °C
7,COc1ccc2[nH]c3cc(N)c4c(c3c2c1)C(=O)NC4=O,342 to 345 °C
8,C[C@@]1(c2ccccc2)OC(c2ccccc2)=NC[C@H]1OC(=O)Nc1ccccc1 (racemic),180 °C
9,C=C1CC2C3CCC4=CC(=O)C=CC4(C)C3=CCC2(C)C1(O)C(C)=O (configuration not stated),185 to 190 °C
10,CC(=O)c1cc(-c2ccccc2)c(=O)n2c1-c1ccsc1CC2,181 to 182 °C
11,COC(=O)c1nc(C)n2c1CN=C(c1ccccc1Cl)c1cc(Cl)ccc1-2,225 to 227 °C
12,c1ccc(OCCSCc2nnc(-c3ccc(OCCCN4CCCC4)cc3)o2)cc1,70 °C
13,CCOC(=O)c1ccc(-c2ccc(-c3ccccc3)s2)s1,113 to 115 °C
14,O=C(O)CCCc1cc2nc(Cl)ccc2n1S(=O)(=O)c1cccc2nccnc12,74 °C
15,O=c1c2c(oc3c1nnn3Cc1ccccc1)CSC2,210 to 212 °C
16,CCCOc1ccc(-c2csc(-c3ccccc3)c2CC(=O)N=C(N)N)cc1,131 to 132 °C
17,CCn1c(=O)n(OCc2ccccc2)c(=O)c2cc(F)c(N3CCCC3)cc21,174 to 176 °C
18,CC1CC(=O)N(c2cc(Cc3n[nH]c(=O)c4ccccc34)ccc2F)C1=O (configuration not stated),171 to 172 °C
19,CCOc1cc(C(C#N)N2C(=O)c3cccc([N+](=O)[O-])c3C2=O)ccc1OC (configuration not stated),155 to 157 °C
20,CCCCCCCCNC(=O)N1CCC(S(=O)(=O)c2ccc(CCNC[C@H](O)COc3ccc4c(c3)OCO4)cc2)CC1,84 to 86 °C
21,CCCN(C=O)n1cc(C(=O)OCC)c(=O)c2cc3c(cc21)OCO3,188 to 192 °C

row,Compound,melting point
1,CCCCc1nc2c(N)nc3ccccc3c2n1CCN1C(=O)NC2CSC(CCCCC(N)=O)C21 (configuration not stated),124 to 126 °C
2,CC(C)Nc1c(-c2ccc(C#N)cc2)c(Cl)nc2ncnn12,190 °C
3,Cc1ncccc1CN(CCn1cc(C)c2occc2c1=O)Cc1ccc2c(c1)NC(=O)C(C)(C)C(=O)N2CC1CC1,220 to 221 °C
4,O=C1NC(=O)C(C2CCCC2)C(=O)N1,222 to 223 °C
5,COc1cccc2c(N(C)c3ccccc3)nc(N(C)c3ccccc3)nc12,169 to 170 °C
6,CCNc1cc(NS(=O)(=O)c2ccc(N)cc2)nc(N)n1,272 to 274 °C
7,Oc1cccc2c1sc1ccccc12,167 to 168 °C
8,NS(=O)(=O)c1cc2c(s1)S(=O)(=O)N(CCO)C(CN1CCOCC1)=C2,104 to 108 °C
9,O=C(NC1CCN(CCc2[nH]c(=O)[nH]c2-c2ccc(F)cc2)CC1)c1ccccc1,218 to 220 °C
10,NC(=O)CC1=C(n2nc(-c3c(-c4ccccc4)nn4ccccc34)ccc2=O)CCCC1,204 to 205 °C
11,O=C(O)[C@@H]1C[C@@H](O)CN1S(=O)(=O)c1ccc2ccccc2c1,140 °C
12,COc1ccc2cccc(Br)c2c1,54 to 58 °C
13,Oc1ccc(Oc2ncc(Br)cn2)cc1,178 °C
14,Clc1ccc(-c2nc3c(c(NC4CCCC4)n2)CCC3)cc1,167 °C
15,COCCCCCCCCCCCC(N)=S,86.8 to 89.2 °C
16,C=CCSc1nc(=O)n(-c2ccsc2)cc1F,125 to 127 °C
17,NC(=O)c1cn(Cc2cccc(F)c2F)cn1,221 to 222 °C
18,O=C(OCc1ccccc1)c1cc2c3ccccc3n(Cc3ccccc3)c2cn1,169 to 170 °C
19,N=C(N)NCCCC(NC(=O)C(CS)Cc1ccccc1)C(=O)O (configuration not stated),135 °C
20,COc1cc(CCCC2SC(=O)NC2=O)ccc1OCc1coc(CCc2ccccc2)n1 (configuration not stated),126 to 127 °C
21,Cn1cncc1COCC(O)c1ccc(OCc2ccccc2)cc1 (configuration not stated),148 to 150 °C

row,Compound,melting point
1,CC(=O)Nc1ccc(C(=O)NC2CCN(C3CCCCC3)C2)cc1 (configuration not stated),184 to 186 °C
2,O=C(O)c1cccc(-c2cccc3oc(Cc4cccc(C(F)(F)F)c4)cc23)c1,138 to 139 °C
3,CC(CCCO)C(c1cc(F)ccc1F)S(=O)(=O)c1ccc(Cl)cc1 (configuration not stated),67 to 69 °C
4,N#Cc1nc(-c2ccc(O)cc2)cs1,186 to 197 °C
5,OCc1ccc(-c2cn([C@H]3CN4CCC3CC4)nn2)cc1,200 °C
6,O=C(O)CCc1cc2cc(Cl)ccc2n1S(=O)(=O)c1ccc2c(c1)OCO2,207 °C
7,C[C@H]1N(S(C)(=O)=O)CO[C@@]1(Cn1cncn1)c1ccc(Cl)cc1Cl (relative stereo),167 to 172 °C
8,FC(F)(F)c1cccc(-c2ccc3nnc(C(F)(F)F)n3n2)c1,189 °C
9,N#Cc1cc(-c2cc(C(F)F)c3c(-c4cccnc4)n[nH]c3n2)ccc1N,296 °C
10,C=CCCCN(CCCC=C)Cc1noc(-c2ncn3c2CN(C)C(=O)c2ccccc2-3)n1,167 to 169 °C
11,COc1ccc(C(Sc2cc(Oc3ccc(Cl)cc3)ccc2N)C(O)C(=O)O)cc1 (configuration not stated),179 to 181 °C
12,COc1ccc(CCC(C)N(Cc2ccccc2)CC(O)c2ccc(OCc3ccccc3)c(N)c2)cc1OC (configuration not stated),115 °C
13,CC(=O)N(O)Cc1ccc(C(O)C#Cc2ccsc2)cc1 (configuration not stated),126 to 129 °C
14,NC(=O)c1c(OCc2ccccc2)ccc2ccccc12,153 to 154 °C
15,CC(=O)SC1CN(C(C(=O)C2CC2)c2ccccc2F)C1 (configuration not stated),49 to 52 °C
16,CCCc1c(OCCCCOc2ccc(Sc3ccccc3CC(=O)O)cc2)ccc(C(C)=O)c1O,76 to 78 °C
17,CN(C)C1CSC(C#N)(c2ccc(Cl)cc2)SC1 (configuration not stated),110 to 111 °C
18,O=C(O)C1CC1(C(=O)O)c1cccc([N+](=O)[O-])c1 (configuration not stated),167 to 170 °C
19,O=[N+]([O-])c1cc(-c2nc3n(c2Cl)CCCC3)c(Cl)cc1Cl,111 to 112 °C
20,CS(=O)(=O)c1ccc(N)c([N+](=O)[O-])c1,195 to 198 °C

# The remaining lines, values ahead:
row,melting point,Compound
1,147 to 149 °C,OC(CNC1=NCCN1)c1ccccc1 (configuration not stated)
2,150 to 152 °C,O=C1NC(=O)C(CC#Cc2cc(C(F)(F)F)cc(C(F)(F)F)c2)(S(=O)(=O)c2ccccn2)S1 (configuration not stated)
3,84 °C,CC(C)(C)OC(=O)NCC(=O)OCCCNc1cccc2c1C(=O)c1ccccc1C2=O
4,98.9 to 101 °C,CCC(=O)Nc1ccc2[nH]cc(C3CCN(C)CC3)c2n1
5,74 to 76 °C,CC(C)(C)C(=O)C(=Cc1cccnc1)Oc1ccc(Cl)cc1
6,121 to 124 °C,CC(=O)O[C@H]1C[C@@H](n2ccc(N)nc2=O)[C@H](O)[C@@H]1O (racemic)
7,252 to 253 °C,Cc1cccc(C(=O)Nc2c[nH]nc2C(=O)NCCO)n1
8,190 to 194 °C,C=CCNc1nc(=O)c2cccnc2n1Cc1ccc(F)cc1
9,122 to 124 °C,Cc1cccc2c1N(C)CS2=O (configuration not stated)
10,160 to 162 °C,COC(=O)c1cc(OC(C)=O)c2cc[nH]c2c1
11,206 to 207 °C,COC(=O)C1=C(C)NC(C#N)=C(C(=O)OC)C1c1cccc([N+](=O)[O-])c1 (configuration not stated)
12,124 to 126 °C,CC(C)(C)OC(=O)Nc1ccc(CN2OCC(C)(C)C2=O)c(Cl)c1
13,162 to 166 °C,Cc1cccc2nc3sc(Cl)cn3c(=O)c12
14,36 to 39 °C,C=Cc1cc(C(C)(C)C)c(O)c(C(C)(C)C)c1
15,195 to 200 °C,O=C(O)C(=O)c1oc2cccc(OCc3ccc(F)cc3)c2c1O
16,142 to 143 °C,CCOC(=O)c1cnc(-c2cc3cccc(N(C)S(=O)(=O)c4cccs4)c3n2COC)s1
17,193 to 194 °C,CN(Cc1ccc(NC(=O)C2=Cc3cc(-c4ccc(C(C)(C)C)cc4)ccc3OCC2)cc1)C1CCOCC1
18,165 to 168 °C,CC(C)Cn1c(CO)nc2cnc3ccccc3c21
19,96 to 98 °C,CC(Cc1ccc(-c2ccc(Cl)cc2)cc1Cl)NC(=O)c1cn(C)nc1C(F)F (configuration not stated)
20,226 °C,CC=CC(=O)Nc1n[nH]c2cc(Cl)ccc12

row,melting point,Compound
1,200 to 210 °C,COC(=O)CC1=C(C)Cc2ccc(SC)cc21
2,145 to 147 °C,COc1cc(OC)nc(NC(=O)NS(=O)(=O)c2ncccc2C(CF)OC(C)=O)n1 (configuration not stated)
3,> 260 °C,O=C1CCC(N2C(=O)c3cccc(CNC(=O)c4cnc5ccccc5n4)c3C2=O)C(=O)N1 (configuration not stated)
4,82 to 83 °C,CCOC(=O)/C=C/c1cnn(C)c1-c1ccoc1
5,203 to 204 °C,CCOC(=O)c1oc2c(-c3ccc(F)cc3)c(-c3ccc(S(C)(=O)=O)cc3)nn2c1C
6,146 to 147 °C,CS(=O)(=O)c1ccc(C(=O)CC(=O)C2CC2)c(Cl)c1-c1nccs1
7,123 to 125 °C,COC(=O)Nc1ccc(OCc2nc3ccc(OC)cc3s2)cc1C
8,125 to 126 °C,COc1cccc(CC(=O)O)c1OCCCc1cn(-c2ccc(F)cn2)nc1C(C)C
9,208 °C,COc1cc2[nH]c(C(=O)O)cc2c(C)c1C
10,56 to 57 °C,COc1ccc(C(=O)SC)c(O)c1
11,189 to 191 °C,COc1cc2cc(C(=O)N3CC(CCl)c4c3cc(N3C(=O)c5ccccc5C3=O)c3ncccc43)[nH]c2c(OC)c1OC (configuration not stated)
12,134 °C,CC(C)(C)NC(=O)c1ncc[nH]1
13,96 to 98 °C,CC(C)(C)OC(=O)NCCCCCC(=O)Nc1cccnc1
14,228 to 230 °C,CNC(=NS(C)(=O)=O)Nc1ccc(C2=NNC(=O)CC2C)cc1 (configuration not stated)
15,212 to 214 °C,CC(CC#CCN1CCN(C)CC1)C(=O)N1c2ccccc2C(=O)Nc2cccnc21 (configuration not stated)
16,236 to 237 °C,NS(=O)(=O)c1cc(C(=O)O)cc(S(=O)(=O)Cc2ccccc2)c1Cl
17,66 to 68 °C,CCCCN(CCCC)C(=O)Cc1ccccc1Nc1c(Cl)cccc1Cl
18,180 to 182 °C,Cc1cc(C)cc(-c2cc3cnc(N)nc3nc2NC(=O)NC(C)(C)C)c1
19,132 °C,Cc1ccnc(-c2cc(C)cc(C#N)n2)c1
20,99 to 102 °C,CCCCNC(=O)Oc1ccc(N=C=S)cc1
